Reference: PubChem BioAssay AID248 (DTP/NCI, 2004)
“And” between values parts separate entries of the source, which are not always exact repeats. Equal values may be shown once. Inconclusive results and toxic doses are left out.

System: L1210 leukemia ip in BDF1 mice, survival T/C
Assay: NCI In Vivo Anticancer Drug Screen. Data for tumor model L1210 Leukemia (intraperitoneal) in B6D2F1 (BDF1) mice
Settings: endpoint: mean survival time, higher = longer survival
Outline: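 Value reflects the ratio of survival in compound-treated mice to survival in vehicle-treated controls, with both groups carrying the same transplanted tumor.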

[1] = dose: 100.0 mg/kg/injection, schedule: Q04DX003 (ip), vehicle: Klucel (hydroxypropylcellulose) (HPC)
[2] = dose: 200.0 mg/kg/injection, schedule: Q04DX003 (ip), vehicle: Klucel (hydroxypropylcellulose) (HPC)
[3] = dose: 400.0 mg/kg/injection, schedule: Q04DX003 (ip), vehicle: Klucel (hydroxypropylcellulose) (HPC)
[4] = dose: 100.0 mg/kg/injection, schedule: Q01DX001 (ip), vehicle: saline
[5] = dose: 200.0 mg/kg/injection, schedule: Q01DX001 (ip), vehicle: saline

How did the T/C (dose: 50.0 mg/kg/injection, schedule: Q01DX001 (sc), vehicle: steriod suspending solution) turn out when `CCN(CC)CCO[C@H]1CC[C@@]2(C)C(=CC[C@@H]3[C@@H]2CC[C@]2(C)C(=O)CC[C@@H]32)C1` was run?
The T/C was 101 % of control.

What about the T/C (dose: 100.0 mg/kg/injection, schedule: Q01DX001 (sc), vehicle: steriod suspending solution) of the same molecule?
The T/C was 90 % of control.

Which results are given for `N#C/C=C/C=C/C#N`?
T/C (dose: 75.0 mg/kg/injection, schedule: Q01DX001 (ip), vehicle: other): 98 % of control; T/C (dose: 150.0 mg/kg/injection, schedule: Q01DX001 (ip), vehicle: other): 103 % of control

How did the T/C (dose: 6.25 mg/kg/injection, schedule: Q01DX009 (ip), vehicle: Klucel (hydroxypropylcellulose) (HPC)) turn out when `COc1cc2c(c(OC)c1OC)-c1ccc(SCc3ccccc3)c(=O)cc1[C@@H](NC(C)=O)CC2` was run?
Its T/C is 106 % of control.

And the T/C (dose: 8.2 mg/kg/injection, schedule: Q01DX009 (ip), vehicle: Klucel (hydroxypropylcellulose) (HPC))?
Its T/C is 121 % of control.

What about the T/C (dose: 12.5 mg/kg/injection, schedule: Q01DX009 (ip), vehicle: Klucel (hydroxypropylcellulose) (HPC)) of the same molecule?
Its T/C is 124 % of control.

And the T/C (dose: 18.0 mg/kg/injection, schedule: Q01DX009 (ip), vehicle: Klucel (hydroxypropylcellulose) (HPC))?
Its T/C is 101 % of control.

What about the T/C (dose: 25.0 mg/kg/injection, schedule: Q01DX009 (ip), vehicle: Klucel (hydroxypropylcellulose) (HPC)) of the same molecule?
The T/C was 115 % of control and 92 % of control.

Which results are given for `Cc1cccc(NC(=O)Nc2ccccc2)n1`?
T/C (dose: 100.0 mg/kg/injection, schedule: Q04DX002 (ip), vehicle: Klucel (hydroxypropylcellulose) (HPC)): 98 % of control; T/C (dose: 200.0 mg/kg/injection, schedule: Q04DX002 (ip), vehicle: Klucel (hydroxypropylcellulose) (HPC)): 103 % of control; T/C (dose: 400.0 mg/kg/injection, schedule: Q04DX002 (ip), vehicle: Klucel (hydroxypropylcellulose) (HPC)): 103 % of control

How did the T/C [1] turn out when `N#CCCCCCCn1cnc2c(=S)nc[nH]c21` was run?
The T/C was 104 % of control.

What about the T/C [2] of the same molecule?
Its T/C is 107 % of control.

And the T/C [3]?
Its T/C is 107 % of control.

`CN(C)N1C(=O)CC2(CCC(C(C)(C)C)CC2)CC1=O` was tested. Which T/C (dose: 50.0 mg/kg/injection, schedule: Q01DX001 (ip), vehicle: carboxymethylcellulose (CMC)) did it give?
The T/C was 109 % of control.

And the T/C (dose: 100.0 mg/kg/injection, schedule: Q01DX001 (ip), vehicle: carboxymethylcellulose (CMC))?
Its T/C is 95 % of control.

And the T/C (dose: 200.0 mg/kg/injection, schedule: Q01DX001 (ip), vehicle: carboxymethylcellulose (CMC))?
Its T/C is 104 % of control.

What about the T/C (dose: 400.0 mg/kg/injection, schedule: Q01DX001 (ip), vehicle: carboxymethylcellulose (CMC)) of the same molecule?
The T/C was 104 % of control.

Which results are given for `COc1ccccc1C1CCCC2C(Oc3ccc([N+](=O)[O-])cc3)OC12` (centres undefined)?
T/C (dose: 50.0 mg/kg/injection, schedule: Q01DX009 (ip), vehicle: saline with Tween-80): 87 % of control; T/C (dose: 100.0 mg/kg/injection, schedule: Q01DX009 (ip), vehicle: saline with Tween-80): 100 % of control

With `Cc1cc(=O)[nH]c2c(O)ccc([N+](=O)[O-])c12` as the molecule, how does the T/C (dose: 100.0 mg/kg/injection, schedule: Q04DX003 (ip), vehicle: saline) read?
The T/C was 103 % of control.

And the T/C (dose: 200.0 mg/kg/injection, schedule: Q04DX003 (ip), vehicle: saline)?
Its T/C is 103 % of control.

What about the T/C (dose: 400.0 mg/kg/injection, schedule: Q04DX003 (ip), vehicle: saline) of the same molecule?
Its T/C is 103 % of control.

What does the source list for `CCCCCCCCCCCC(=O)NC(=S)Nc1ccc([N+](=O)[O-])cc1OC`?
T/C [1]: 96 % of control; T/C [2]: 92 % of control; T/C [3]: 102 % of control

With `Cc1nonc1-c1nc(SCC(=O)NN)n[nH]1` as the molecule, how does the T/C (dose: 25.0 mg/kg/injection, schedule: Q04DX002 (ip), vehicle: Klucel (hydroxypropylcellulose) (HPC)) read?
Its T/C is 102 % of control.

And the T/C (dose: 50.0 mg/kg/injection, schedule: Q04DX002 (ip), vehicle: Klucel (hydroxypropylcellulose) (HPC))?
The T/C was 98 % of control.

`CC(C)COP(=O)(Cc1ccccc1)OCC(C)C` was tested. Which T/C (dose: 100.0 mg/kg/injection, schedule: Q01DX009 (ip), vehicle: Klucel (hydroxypropylcellulose) (HPC)) did it give?
The T/C was 110 % of control.

What about the T/C (dose: 200.0 mg/kg/injection, schedule: Q01DX009 (ip), vehicle: Klucel (hydroxypropylcellulose) (HPC)) of the same molecule?
The T/C was 101 % of control.

For `CSc1ccnc2n[nH]nc12`, which T/C (dose: 100.0 mg/kg/injection, schedule: Q01DX001 (ip), vehicle: Klucel (hydroxypropylcellulose) (HPC)) is on record?
The T/C was 102 % of control.

And the T/C [1]?
Its T/C is 94 % of control.

What about the T/C (dose: 200.0 mg/kg/injection, schedule: Q01DX001 (ip), vehicle: Klucel (hydroxypropylcellulose) (HPC)) of the same molecule?
Its T/C is 104 % of control.

What about the T/C [2] of the same molecule?
The T/C was 101 % of control.

How did the T/C (dose: 100.0 mg/kg/injection, schedule: Q04DX003 (ip), vehicle: saline sonified) turn out when `CC(C)C1NC(=O)C2CCCN2C1=O` (centres undefined) was run?
The T/C was 98 % of control.

And the T/C (dose: 200.0 mg/kg/injection, schedule: Q04DX003 (ip), vehicle: saline sonified)?
Its T/C is 96 % of control.

And the T/C (dose: 400.0 mg/kg/injection, schedule: Q04DX003 (ip), vehicle: saline sonified)?
Its T/C is 97 % of control.

How did the T/C [4] turn out when `BrC1CCCCC1Br` (centres undefined) was run?
Its T/C is 98 % of control.

And the T/C [5]?
The T/C was 101 % of control.

For `CNc1c(Cl)n(C)c(=O)n(C)c1=O`, which T/C (dose: 50.0 mg/kg/injection, schedule: Q01DX001 (ip), vehicle: saline) is on record?
Its T/C is 101 % of control.

What about the T/C [4] of the same molecule?
Its T/C is 101 % of control.

What about the T/C [5] of the same molecule?
Its T/C is 104 % of control.

What about the T/C (dose: 400.0 mg/kg/injection, schedule: Q01DX001 (ip), vehicle: saline) of the same molecule?
Its T/C is 101 % of control.
